Experimental findings from patent US20260265267A1, “NOVEL COMPOUNDS WITH MTORC2-INHIBITORY ACTIVITY AND USES THEREOF” (Aliad Biopharma, priority 2023, published 2026) are described below.

In one assay the test system is LC3-II. Nature of the assay: LC3-II levels in primary cultured cerebral neurons. It is filed as cell-based, SD mice. Particulars: for effect on LC3-II: 500 nM or 100 nM, time course to 24 hours; for LC3-II (% control): 24 hours. As to the method:
Specifically, primary neural cells were cultured from the cerebral cortex of E16 embryos of SD […] with a gestational age 16-day (Orient Bio). The extracted brain was separated into the left and right hemispheres, the meninges were removed, and the brains were treated with trypsin in Ca^2+/Mg^2+-free HBSS solution. […] The cells were seeded at a density of 19,000 cells/cm^2 onto 35 mm culture dishes coated with 50 μg/ml poly-D-Lysine (Sigma, P0899) and 1 μg/ml laminin (Invitrogen, 23017-015), and then maintained in neurobasal complete media supplemented with B27 (Gibco, 17504-044) in a 5% CO2 incubator.
Therefore, the evaluation of mTORC2 inhibitory activity in primary cultured cerebral cells was conducted using the same method as in Experimental Example 1, except that each compound was treated at concentrations of 500 nM or 100 nM for 24 hours. The time-dependent changes in Akt Ser473 phosphorylation, Akt Thr308 phosphorylation, and LC3-II levels were measured by Western blot analysis.

Assay [1] has as its target T1, mTOR(CD) protein and mLST8 protein (Homo sapiens, UniProt P42345+Q9BVC4).
T1 construct: mTOR C-terminal domain (mTOR(CD), a.a. 2179-2549); made in house; host or cells: E. coli (mTOR(CD)); insect Sf9 cells (mLST8, used as a crude extract)
The assay can be described thus: mTOR(CD)-mLST8 binding assay (co-precipitation, Western blot). Conditions: read-out: inhibition of the binding between mTOR(CD) and mLST8 proteins. As to the method: mLST8 binds to the mTOR C-terminal domain (mTOR(CD), a.a. 2179-2549). After binding to mTOR, mLST8 interacts with mSin1 and Rictor to complete the formation of the mTORC2 complex, serving as a scaffold. In order to evaluate the inhibitory activity of the compounds synthesized in Examples 1 to 70 on the binding between mLST8 protein and mTOR(CD) protein, the following mTOR(CD)-mLST8 binding assay was performed. Four types of compounds: HN2210, HN2213, HN2221 and HN2313 were used as the experimental target compounds.
Specifically, mTOR(CD) protein was overexpressed in E. coli, labeled with biotin, and then partially purified. mLST8 protein was overexpressed in insect Sf9 cells to obtain mLST8 extract. mTOR(CD)-biotin and mLST8 extract were incubated at 4° C. to induce binding between mTOR(CD)-biotin and mLST8 proteins, and then the mTOR(CD)-biotin and mLST8 complex were co-precipitated using avidin-agarose beads. The relative amounts of precipitated mTOR(CD)-biotin and mLST8 proteins were measured by Western blot analysis, as shown in FIG. 4. Four types of compounds were added during the incubation process of the mTOR(CD)-biotin and mLST8 extract.

Broadly, the inhibition is how much of the control response was suppressed.

The structures appear in SMILES notation.

T1 sequence (P42345 2179-2549 limits assumed, species assumed): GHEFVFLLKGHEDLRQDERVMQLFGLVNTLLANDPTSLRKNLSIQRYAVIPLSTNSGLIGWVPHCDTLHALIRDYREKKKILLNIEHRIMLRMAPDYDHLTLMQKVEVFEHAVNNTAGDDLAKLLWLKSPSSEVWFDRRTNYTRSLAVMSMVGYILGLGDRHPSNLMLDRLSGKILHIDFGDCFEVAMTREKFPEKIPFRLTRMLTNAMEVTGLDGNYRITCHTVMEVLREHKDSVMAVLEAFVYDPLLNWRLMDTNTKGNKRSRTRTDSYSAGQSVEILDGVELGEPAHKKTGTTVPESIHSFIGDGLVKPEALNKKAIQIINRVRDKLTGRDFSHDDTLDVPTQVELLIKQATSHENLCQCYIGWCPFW
T1 sequence (Q9BVC4 whole entry, species assumed, the tested form may be a part): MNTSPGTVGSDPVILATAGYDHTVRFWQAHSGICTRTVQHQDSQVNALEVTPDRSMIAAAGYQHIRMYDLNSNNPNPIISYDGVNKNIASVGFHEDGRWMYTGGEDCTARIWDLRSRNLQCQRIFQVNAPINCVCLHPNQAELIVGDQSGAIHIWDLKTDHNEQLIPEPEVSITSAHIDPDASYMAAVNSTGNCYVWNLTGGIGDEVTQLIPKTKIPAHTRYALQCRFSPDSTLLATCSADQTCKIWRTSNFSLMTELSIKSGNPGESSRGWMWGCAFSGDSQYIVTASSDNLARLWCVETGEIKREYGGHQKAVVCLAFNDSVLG

Take `O=C1c2cc(F)c(N3CCOCC3)cc2COc2cc3c(cc21)OCO3` [HN2210, 8-(morpholino)-9-fluoro[2]benzoxepino[3,4-f]-1,3-benzodioxol-11(6H)-one]: the “effect on LC3-II” value with LC3-II was “markedly increased”. Also, in the assay on LC3-II (500 nM), the “LC3-II (% control)” value is listed as 348 % control. In assay [1], the inhibition at 4 µM was determined as 24% and the inhibition at 40 µM was found to be 36%.

For the compound `O=C1c2cc(F)c(NCc3ccccc3)cc2COc2cc3c(cc21)OCO3` [HN2213, 8-(benzylamino)-9-fluoro[2]benzoxepino[3,4-f]-1,3-benzodioxol-11(6H)-one], the “effect on LC3-II” value in the assay with LC3-II was “significantly increased”. Moreover, the “LC3-II (% control)” value in the assay with LC3-II (500 nM) is on record as 336 % control. Moreover, in assay [1], the inhibition at 4 µM is 19% and the inhibition at 40 µM was found to be 30%.

`O=C1c2cc(F)c(NC3CCCC3)cc2COc2cc3c(cc21)OCO3` [HN2313, 8-(cyclopentylamino)-9-fluoro-[1,3]dioxolo[4′,5′:4,5]benzo[1,2-b]benzo[e]oxepin-11(6H)-one]: in the assay with LC3-II (100 nM), the “LC3-II (% control)” value was determined as 86 % control. Also, in the assay on LC3-II, the “effect on LC3-II” value is listed as “not affected”. The inhibition at 40 µM in assay [1] was found to be 34%.
